{"source": "paper PMC9714576", "about": "“Cell-penetrating peptide-conjugated copper complexes for redox-mediated anticancer therapy” (Frontiers in Pharmacology, 2022)", "key": {"HeLa cells": {"system": "HeLa cells", "assay": "Cell-viability assay (PrestoBlue)", "format": "cell-based, Human", "conditions": "24 h treatment, normalized for Cu concentration, mean ± SD, N ≥ 3", "experimental": "(§1) Human cancer cells (cervix: HeLa; and breast: MCF7) were obtained from American Type Culture Collection (ATCC, Manassas, VA, United States). Cells were routinely cultured with DMEM (Dulbecco’s modified Eagle’s medium, Invitrogen) for HeLa, and with DMEM/F-12 (Dulbecco’s MEM/Nutrient Mixture F-12 Ham, Invitrogen) for MCF7, both supplemented with 10% heat-inactivated fetal bovine serum (FBS, Invitrogen) at 37°C in a humidified 5% CO2 atmosphere.\n(§2) HeLa and MFC7 cells were seeded into a 96-well plate at a cell density of 3·10^3 cells/well in 100 µL of culture medium and allowed to grow overnight. The next day, the C1-C5 complexes were added to cells at a range concentration of 0–200 μM. […] The growth inhibitory effect of the complexes was measured at 24 h using the PrestoBlue Cell Reagent (Life Technologies) assay. […] After 2 h incubation (37°C, 5% CO2), the fluorescence of each well was measured at 572 nm after excitation at 531 nm with a Microplate Reader Victor3 (Perkin Elmer). Cytotoxicity was evaluated by relative cell viability (%) for each sample related to the control well. The IC50 values were calculated from the obtained cell viability results. […] Cells were allowed then to evolve until a total incubation time of 72 h and the cell viability was measured with PrestoBlue®, as beforehand detailed."}, "MCF7 cells": {"system": "MCF7 cells", "assay": "Cell-viability assay (PrestoBlue)", "format": "cell-based, Human", "conditions": "MCF7, 24 h treatment, normalized for Cu concentration, mean ± SD, N ≥ 3", "experimental": "as §1, §2"}, "[1]": {"assay": "Ascorbate consumption experiment (ROS-generation capability, UV-vis)", "conditions": "ascorbic acid 100 µM, complex 2 µM, 50 mM NaCl/5 mM TRIS-HCl pH 7.2, max 5% DMSO, UV-vis at 265 nm", "experimental": "All the spectra were recorded at room temperature either on an Agilent HP 8453, a Varian Cary 50 Bio, a Varian Cary 60 Bio or a Perkin Elmer Lambda 650 spectrophotometer, using 1 cm quart-cuvettes. Ascorbate consumption experiments were monitored by UV-vis at the maximum absorption band of the ascorbic acid (100 µM) at 265 nm for about 45 min. CuCl2 and the assayed complexes C1-C3 were added at a final concentration of 2 µM in 50 mM NaCl/5 mM TRIS-HCl buffer (pH 7.2), with a maximum of 5% of DMSO.\nPrior to biological evaluation, and after proving that the new C2-C5 Cu(II) complexes hold the same metallic core as C1, the impact of the ligand substituents on their catalytic properties, and therefore, ROS-generating capabilities ([Peña et al., 2021]), were confirmed with the two simplest functionalized Cu(II) compounds (C2 and C3), as model compounds bearing oppositely-charged functional moieties. The consumption of ascorbate was measured by UV-vis spectroscopy, monitoring its characteristic absorbance at 265 nm. The correlation of ascorbate consumption with the generation of ROS has proven to be a reliable method to effectively monitor ROS production ([Alies et al., 2013]; [Chassaing et al., 2013])."}}}
{"smiles": "[Cl][Cu][Cl]", "note": "[CuCl2, copper(II) chloride]", "values": [{"measurement": "IC50", "setting": "HeLa cells", "value": "≥ 200", "unit": "µM"}, {"measurement": "IC50", "setting": "MCF7 cells", "value": "≥ 200", "unit": "µM"}, {"measurement": "Time to (almost) total ascorbate consumption", "setting": "[1]", "value": "~20", "unit": "min"}]}
